Reference: patent US11485714B2, “Hydroxyethylamine-based piperazine compounds, and methods of producing and using the same for treating disease” (National Institute of Immunology, priority 2020, dated 2022)
Read-outs that look alike come from different tables or passages of the source.

Tests used:
[1] = system: P. falciparum CQ-sensitive (Pf3D7); experiment: SYBR Green I assay, asynchronous cultures, CQ-sensitive clone; assay type: cell-based; details: Plasmodium falciparum
Protocol: Initially, antimalarial activity of Compound I was assessed on asynchronous cultures of P. falciparum sensitive (Pf3D7) clone using the SYBR Green assay. […] DMSO was used as a vehicle control, CQ (Chloroquine), DOX (Doxycycline) and DHA (Dihydroartemisinin).

[2] = system: peripheral blood mononuclear cells (PBMCs); experiment: In vitro cytotoxicity, PBMC (MTT, Cell Titer Glo); assay type: cell-based, human
Protocol: (§1) [6] PBMC were isolated from healthy donors using the Ficoll-Paque™ technique (GE Healthcare Bioscience AB, Uppsala, Sweden) from donor leukopack samples obtained from LUMC blood bank services. […] Robust cells at a concentration of 80,000 cells/ml were plated into 96-well plates and incubated for 24 hours. Cell viability and proliferation was determined by use of both MTT and Cell Titer Glo@ assays for both cell types. MTT assay was conducted by addition of 10 μL MTT solution (5 mg/mL) into each well, incubated for 4 hour at 37° C. followed by addition of 50 μL DMSO to dissolve the formazan precipitate according to the manufacturer's protocol. Aliquots were drawn from each well and color intensity was measured spectrophotometrically in SpectraMax® M5 Multi-Mode Microplate Reader.
(§2) The cytotoxicity of Compound I was tested by exposing peripheral blood mononuclear cells (PBMCs) to drug concentrations corresponding to averages of both Pf3D7 and PfDd2 IC50 values. This was intended to establish whether the observed antiparasitic effects of the compounds were due to non-specific inhibitory activity. […] The IC50 required for killing the parasite is <90 nM. Therefore, in order to be toxic for human cells we have to use over 650 fold concentration.

[3] = In vitro cytotoxicity, PBMC (MTT, Cell Titer Glo); assay type: cell-based, human; details: human; PBMCs; read-out: CC50 (50% cell toxicity)
Protocol: as §1, §2

[4] = system: P. berghei sporozoites in HepG2 cells; experiment: Liver stage infection in HepG2 cells, qPCR of 18SrRNA; assay type: cell-based, Plasmodium berghei; details: for IC50: read-out: in-vitro liver stage IC50
From the text: Liver stage infection in HepG2 cells: Salivary glands of Anopheles stephensi mosquitoes infected with green fluorescent protein (GFP)-expressing P. berghei ANKA (Insectary at National Institute of Immunology, New Delhi, India) were dissected out. Sporozoites were perched in complete medium (Dulbecco's Modified Eagle Medium (DMEM)) with 10% fetal bovine serum (FBS), 3% penicillin-streptomycin (P/S)), and allowed to infect HepG2 cells. The cells were already treated with Calxinin at various concentrations (0.1 μM, 1 μM and 10 μM). The plate was centrifuged at 3000 rpm for 5 minutes to ensure the sporozoites settled down in the plate, and then placed in the incubation at 37° C. for 3 hours. Afterwards, media was replaced with pre-warmed medium (DMEM, 10% FBS, 3% P/S, and 0.1% Fungizone) supplemented with dimethyl sulfoxide (DMSO), and Calxinin at indicated concentrations. After two days, the cells were treated with Trizol and […] at −80° C. RNA isolation followed by reverse transcription polymerase chain reaction (RTPCR) was done to estimate the parasite load in the infected cells.
Compound I was tested in vitro against Plasmodium liver stage parasites. HepG2 cells, a human hepatocyte cell line, were infected with Plasmodium berghie sporozoites (mosquito infective forms of malaria). One set of cells was treated with 0.4, 2.0 and 10.0 micromolar concentration of inhibitor Compound I, and the other set was left untreated. Sporozoite infection time was considered as zero time. Twenty-four hours after infection the culture media was refreshed and the inhibitors were replenished. After forty-eight hours, total cells were harvested and total RNA was extracted by the Trizol™ method. RNA was converted into cDNA and realtime PCR was performed using the parasite 18SrRNA primers. This determined the liver stage parasite burden, which was then converted into percent inhibition by comparing with the untreated set.
Liver schizont stages are the first stage of human infection after injection of sporozoites by mosquitoes. The activity of compounds against this stage offers the important part of the antimalarial therapy, chemoprotection. To evaluate the efficacy of Compound I against liver stage parasites, HepG2 cells were infected with P. berghei sporozoites, in triplicates, and dosed with 0.1, 1, 10 μM of Compound I dissolved in 1% DMSO. The parasite load was quantified in control and Compound I-treated cells by quantitative PCR (qPCR) using parasite specific 18SrRNA primers. […] Inhibitory effect decreases up to 61% while treating cells with 10 μM due to precipitation of compound at higher concentration (FIG. 3). […] The liver stage activity of Compound I is much higher over the current treatments, atovaquone (ATQ) in culture.

[5] = system: P. berghei ookinete (Pb-GFPcon); experiment: In vitro ookinete inhibition assay; assay type: cell-based, Plasmodium berghei
Protocol: [3] In vitro Ookinete inhibition assay of Calxinin. To determine whether Compound I (Calxinin) is blocking the growth of the transmission stage of malaria GFP-expressing P. berghei ANKA constitutively (Pb-GFPcon), which expresses the GFP during all the developmental stages, was used during in vitro experiments. Compound I (Calxinin) was tested in nanomolar range for its ability to inhibit ookinete development. Early gametocyte stage was maintained in vitro by incubating in ookinete media containing Xanthrunic acid and various other nutrients (complete DMEM) and pH 8.0. For the inhibition assay, culture plates containing Calxinin at different concentrations were incubated for about 24 h at 19° C. on a shaker and in the dark. After 24 h, ookinete development was checked by generating blood smears from the cultures. Smears were fixed, stained with Giemsa and counted in a NIKON 80i microscope.
Example 13—In-vitro Ookinete inhibition assay Encouraged with notable potency against symptomatic asexual blood stage, liver stage, and gametocidal activity, transmission blocking efficacy of Compound I (Calxinin) was evaluated against ookinete. […] As the concentration of Compound I increases, the percentage of healthy parasite is reduced and the % of deformed parasite increases (FIG. 7B).

[6] = system: human T-type calcium channel; experiment: Whole cell patch clamp in HEK 293 cells; assay type: cell-based; details: increasing concentrations up to 1 microMolar
Protocol: These currents were measured with the Patch clamp method in the “whole cell” configuration. In this configuration, the total currents that pass through all the calcium channels present in the plasma membrane are measured. In this case, it is measured in HEK cells, which constitutively express the human T type Calcium channel. In this case, the internal solutions contain the Cs+ instead of K+, thus blocking the K+ channels and the external one contains TEA an external channel blocker of K. This way the only currents that can develop in these cells are that of T type Calcium channels. This calcium channel is a voltage dependent channel, which is characterized by activating at membrane potentials that are more negative than L-type channels and by rapidly inactivating. […] This is the characteristic of the human T type calcium channel.
Human T-type calcium channel currents were measured with the Patch clamp on the “whole cell” configuration in HEK cells constitutively expressing human T type Calcium channel.

## NC(Cc1ccccc1)C(O)CN1CCN(Cc2ccc(C(F)(F)F)cc2)CC1 (centres unmarked) [Compound I]
[1]; 3D7, read-out: IC50 against asexual stages, drug sensitive (CQ-sensitive) 3D7, text
  IC50: 88 nM
[1]; 72 h, read-out: Pf3D7 IC50, nM (±SD), asynchronous cultures, 37° C., 72 hours, SYBR Green I
  IC50: 90 nM
[1]; strain not specified, read-out: IC50 required for killing the parasite
  IC50: < 90 nM
[2]; 24 hours
  % PBMC viability relative to vehicle control: > 100%
[2]; concentration = average of Pf3D7 and PfDd2 IC50, Cell Titer-GLO
  proliferation of the PBMCs (PBMC): 110.12
[3]
  CC50 at 24 h: 1000 µM
[4]; Plasmodium berghei, HepG2, 0.1 μM, read-out: inhibition of liver stage parasite load
  inhibition at 0.1 µM: ~60%
[4]; Plasmodium berghei, HepG2, 1 μM, read-out: inhibition of liver stage parasite load
  inhibition at 1 µM: ~88%
[4]; Plasmodium berghei, HepG2, 10 μM, precipitation of compound, read-out: inhibition of liver stage parasite load
  inhibition at 10 µM: ≤ 61%
[4]; Plasmodium berghei, HepG2
  IC50: 0.079 µM
[4]; listed as Calxinin
  IC50: 0.065 µM
[5]; 450 nanomolar
  ookinete morphology: deformed and retarded Ookinete
[5]; Plasmodium berghei, 24 h, 19° C.
  IC50: ~0.15 µM
[6]
  activity of the Calcium T Channel (current amplitude, voltage dependence of activation): No difference
